Experimental data published in US12280040B2, “Compositions and methods of a dihydroisoxazole compound that reduces ectoparasite infestations on fish” (EVAH Atlantic Inc., priority 2023, dated 2025).

System: copepodid stage of sea lice
Assay: Bath test against copepodid stage of sea lice
Type: in vivo
Details: in a bath at similar dosage
Excerpt: While compounds in this class act with similar modes of action (in this case on the gamma-aminobutyric acid (GABA) and glutamate gated chloride channels), differences do exist among them that influence pharmacological activity.

C#CCNC(=O)CNC(=O)c1sc(C2=NOC(c3cc(Cl)cc(Cl)c3)(C(F)(F)F)C2)cc1C (stereo not shown)
activity against the copepodid stage of sea lice: inactive
